Assay results: US20240156754A1, “POWDER COMPOSITION FOR DISINFECTION OF THE TEATS OF DAIRY ANIMALS” (KLARECO SRL, priority 2022, published 2024)
“And” between values parts separate entries of the source, which are not always exact repeats. Identical values can stand only once.

Test: Accelerated stability test (30° C., 65% RH, 18 weeks)
Assay type: physicochemical
Experimental: Accelerated stability test has been carried what to assess the quality of a test item prepared as the one in Example 7 during time, under the influence of temperature and humidity.
The test was conducted at 30° C., at 65% of relative humidity (RH), for 18 weeks.
[…], assessing: the appearance of each container (the one containing chloramine T and the one containing the excipients), appearance of the products therein, the weight loss of the products and the content of chloramine T.
Appearance of the test item and of the packaging was assessed under the lab light. Weight loss was assessed weighing each sample at T0 (WT0) and at the final time point (WTx) and compared with their initial value (%) according to the following formula:
Weight loss from initial %=[(WT0−WTx)*100]/(WT0)
The content of chloramine T was assessed as described in Example 7.

[1] = T8 w, single determination, 30° C./65% RH
[2] = T18 w, single determination, 30° C./65% RH

## Cc1ccc(S(=O)(=O)[N-]Cl)cc1.[Na+] [Chloramine T, chloramine T]
T0, average
  Available Chlorine, average: 24.53 % w/w
  CHLORAMINE T anhydrous, average: 97.46 % w/w
  CHLORAMINE T tri-hydrated, average: 78.76 % w/w
T0, single determination
  CHLORAMINE T anhydrous: 97.61 % w/w and 97.31 % w/w
  CHLORAMINE T tri-hydrated: 78.88 % w/w and 78.64 % w/w
T0, single determination, chloramine T container of kit
  Available Chlorine: 24.57 % w/w and 24.49 % w/w
T8 w, average, 30° C./65% RH
  Available Chlorine, average: 0.18 % w/w
  CHLORAMINE T anhydrous, average: 0.73 % w/w
  CHLORAMINE T tri-hydrated, average: 0.59 % w/w
[1]
  Available Chlorine: 0.18 % w/w
  CHLORAMINE T anhydrous: 0.73 % w/w
  CHLORAMINE T tri-hydrated: 0.59 % w/w
T18 w versus T0, 30° C./65% RH
  Tx/T0 %, Available Chlorine: 100.4%
  Tx/T0 %, CHLORAMINE T anhydrous: 100.4%
  Tx/T0 %, CHLORAMINE T tri-hydrated: 100.4%
T18 w, average, 30° C./65% RH
  Available Chlorine, average: 24.62 % w/w
  CHLORAMINE T anhydrous, average: 78.06 % w/w
  CHLORAMINE T tri-hydrated, average: 97.83 % w/w
[2]
  Available Chlorine: 24.59 % w/w and 24.86 % w/w
  CHLORAMINE T anhydrous: 78.94 % w/w and 79.18 % w/w
  CHLORAMINE T tri-hydrated: 97.68 % w/w and 97.99 % w/w
After 18 weeks at 30° C./65% RH
  content of active chloramine T compared to T0: 100.4%
After 18 weeks at 30° C./65% RH, envelopes
  variations in the appearance and weight: no significant variations
After 18 weeks at 30° C./65% RH, sealed container
  appearance of the product versus T0: did not present variations from T0
